According to patent US20100267561A1, “HERBICIDAL PYRIDAZINONE DERIVATIVES” (priority 2007, published 2010):

Key:
Assay in all cases: Test E pre-/postemergence plant response
Type in all cases: in vivo
[1] = system: black mustard (Brassica nigra); conditions: scale 0 to 100
Procedure, shortened: (§1)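 Steps: sow seeds; apply compound preemergence in a non-phytotoxic solvent/surfactant formulation; in parallel, spray the same formulation postemergence on 1- to 4-leaf plants (2–18 cm); hold 14–21 days in a greenhouse; rate visually vs controls, 0 = no effect, 100 = complete control.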

[2] = system: dallisgrass (Paspalum dilatatum); conditions: scale 0 to 100
Procedure, shortened: as §1

[3] = system: southern (S.) sandbur (Cenchrus echinatus); conditions: scale 0 to 100
Procedure, shortened: as §1

[4] = system: broadleaf signalgrass (Brachiaria platyphylla); conditions: scale 0 to 100
Procedure, shortened: as §1

[5] = system: naked crabgrass (Digitaria nuda); conditions: scale 0 to 100
Procedure, shortened: as §1

[6] = system: common chickweed (Stellaria media); conditions: Postemergence, scale 0 to 100
Procedure, shortened: as §1

[7] = system: common groundsel (Senecio vulgaris); conditions: Postemergence, scale 0 to 100
Procedure, shortened: as §1

[8] = system: large crabgrass (Digitaria sanguinalis); conditions: scale 0 to 100
Procedure, shortened: as §1

[9] = system: quackgrass (Elytrigia repens); conditions: scale 0 to 100
Procedure, shortened: as §1

[10] = system: common purslane (Portulaca oleracea); conditions: scale 0 to 100
Procedure, shortened: as §1

[11] = system: Italian ryegrass (Lolium multiflorum); conditions: scale 0 to 100
Procedure, shortened: as §1

COC(=O)Oc1cnn(C)c(=O)c1-n1nc(-c2ccc(Cl)cc2)cc1C [Compound 33]
100: Plant response rating, Dallisgrass ([2]; 62 g ai/ha, Preemergence) | Plant response rating, Sandbur, S. ([3]; 62 g ai/ha, Preemergence) | Plant response rating, Signalgrass ([4]; 62 g ai/ha, Preemergence) | Plant response rating, Signalgrass ([4]; Postemergence, 62 g ai/ha) | Plant response rating, Crabgrass, Naked ([5]; 31 g ai/ha, Preemergence) | Plant response rating, Crabgrass, Naked ([5]; 62 g ai/ha, Preemergence) | Plant response rating, Crabgrass, Large ([8]; 31 g ai/ha, Preemergence) | Plant response rating, Crabgrass, Large ([8]; 62 g ai/ha, Preemergence) | Plant response rating, Ryegrass, Italian ([11]; 31 g ai/ha, Preemergence) | Plant response rating, Ryegrass, Italian ([11]; 62 g ai/ha, Preemergence)
75: Plant response rating, Sandbur, S. ([3]; Postemergence, 16 g ai/ha) | Plant response rating, Signalgrass ([4]; 16 g ai/ha, Preemergence) | Plant response rating, Signalgrass ([4]; Postemergence, 8 g ai/ha) | Plant response rating, Signalgrass ([4]; Postemergence, 16 g ai/ha) | Plant response rating, Crabgrass, Naked ([5]; 8 g ai/ha, Preemergence) | Plant response rating, Crabgrass, Naked ([5]; Postemergence, 8 g ai/ha) | Plant response rating, Crabgrass, Large ([8]; 16 g ai/ha, Preemergence) | Plant response rating, Crabgrass, Large ([8]; Postemergence, 16 g ai/ha) | Plant response rating, Ryegrass, Italian ([11]; Postemergence, 16 g ai/ha)
25: Plant response rating, Dallisgrass ([2]; 8 g ai/ha, Preemergence)
0: Plant response rating, Mustard, Black ([1]; 8 g ai/ha, Preemergence) | Plant response rating, Mustard, Black ([1]; 16 g ai/ha, Preemergence) | Plant response rating, Mustard, Black ([1]; 31 g ai/ha, Preemergence) | Plant response rating, Mustard, Black ([1]; 62 g ai/ha, Preemergence) | Plant response rating, Mustard, Black ([1]; Postemergence, 8 g ai/ha) | Plant response rating, Mustard, Black ([1]; Postemergence, 16 g ai/ha) | Plant response rating, Mustard, Black ([1]; Postemergence, 31 g ai/ha) | Plant response rating, Mustard, Black ([1]; Postemergence, 62 g ai/ha) | Plant response rating, Chickweed ([6]; 8 g ai/ha) | Plant response rating, Chickweed ([6]; 16 g ai/ha) | Plant response rating, Chickweed ([6]; 31 g ai/ha) | Plant response rating, Groundsel ([7]; 8 g ai/ha) | Plant response rating, Groundsel ([7]; 16 g ai/ha) | Plant response rating, Groundsel ([7]; 31 g ai/ha) | Plant response rating, Groundsel ([7]; 62 g ai/ha) | Plant response rating, Quackgrass ([9]; Postemergence, 8 g ai/ha) | Plant response rating, Purslane ([10]; 16 g ai/ha, Preemergence) | Plant response rating, Purslane ([10]; 31 g ai/ha, Preemergence) | Plant response rating, Purslane ([10]; 62 g ai/ha, Preemergence) | Plant response rating, Purslane ([10]; Postemergence, 8 g ai/ha) | Plant response rating, Purslane ([10]; Postemergence, 16 g ai/ha) | Plant response rating, Purslane ([10]; Postemergence, 31 g ai/ha) | Plant response rating, Purslane ([10]; Postemergence, 62 g ai/ha)
95: Plant response rating, Signalgrass ([4]; Postemergence, 31 g ai/ha) | Plant response rating, Crabgrass, Naked ([5]; 16 g ai/ha, Preemergence) | Plant response rating, Crabgrass, Large ([8]; Postemergence, 62 g ai/ha) | Plant response rating, Ryegrass, Italian ([11]; Postemergence, 62 g ai/ha)
20: Plant response rating, Quackgrass ([9]; 16 g ai/ha, Preemergence) | Plant response rating, Quackgrass ([9]; 31 g ai/ha, Preemergence)
35: Plant response rating, Dallisgrass ([2]; Postemergence, 8 g ai/ha) | Plant response rating, Dallisgrass ([2]; Postemergence, 16 g ai/ha) | Plant response rating, Ryegrass, Italian ([11]; Postemergence, 8 g ai/ha)
70: Plant response rating, Crabgrass, Large ([8]; Postemergence, 8 g ai/ha) | Plant response rating, Quackgrass ([9]; Postemergence, 62 g ai/ha)
50: Plant response rating, Dallisgrass ([2]; 16 g ai/ha, Preemergence)
60: Plant response rating, Quackgrass ([9]; 62 g ai/ha, Preemergence) | Plant response rating, Quackgrass ([9]; Postemergence, 31 g ai/ha)
90: Plant response rating, Sandbur, S. ([3]; 16 g ai/ha, Preemergence) | Plant response rating, Sandbur, S. ([3]; 31 g ai/ha, Preemergence) | Plant response rating, Sandbur, S. ([3]; Postemergence, 62 g ai/ha) | Plant response rating, Crabgrass, Naked ([5]; Postemergence, 16 g ai/ha) | Plant response rating, Crabgrass, Naked ([5]; Postemergence, 31 g ai/ha) | Plant response rating, Crabgrass, Large ([8]; Postemergence, 31 g ai/ha) | Plant response rating, Ryegrass, Italian ([11]; Postemergence, 31 g ai/ha)
98: Plant response rating, Signalgrass ([4]; 31 g ai/ha, Preemergence) | Plant response rating, Crabgrass, Naked ([5]; Postemergence, 62 g ai/ha) | Plant response rating, Ryegrass, Italian ([11]; 16 g ai/ha, Preemergence)
30: Plant response rating, Quackgrass ([9]; Postemergence, 16 g ai/ha)
80: Plant response rating, Dallisgrass ([2]; 31 g ai/ha, Preemergence) | Plant response rating, Sandbur, S. ([3]; Postemergence, 31 g ai/ha)
65: Plant response rating, Dallisgrass ([2]; Postemergence, 31 g ai/ha) | Plant response rating, Dallisgrass ([2]; Postemergence, 62 g ai/ha) | Plant response rating, Sandbur, S. ([3]; Postemergence, 8 g ai/ha)
40: Plant response rating, Crabgrass, Large ([8]; 8 g ai/ha, Preemergence)
